Some test systems named below: A549; ACHN; HOP-92; KM12; M14; MDA-MB-435; MOLT-4; NCI-H226; OVCAR-3; OVCAR-5; PC-3; RXF 393; SF-539; SK-MEL-28; SK-OV-3; SN12C; SNB-75; SW-620; UACC-257; UO-31.
Holding throughout (experiment): NCI tumour cell line growth inhibition, 48 h

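Briefly, cells in 96-well plates were exposed to five compound concentrations for 48 h, and endpoints were estimated by linear interpolation. Here, GI50 denotes the concentration required for 50% inhibition of growth.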 Calls of active or inactive are those of the source. Cut-off read from the data, not from the text of the source: active = GI50 up to about 1.1 µM and inactive = higher.

In the case of `CCOC(=O)/C(C(N)=O)=C(/O)c1cnccn1`, the GI50 in the assay on A549, with ACHN, with HOP-92, in the assay with KM12, in the assay with M14 and with MDA-MB-435 was > 100 µM (inactive) each time. Also, the GI50 in the assay with MOLT-4, with NCI-H226, in the assay with OVCAR-3, in the assay on OVCAR-5, in the assay with PC-3 and in the assay with RXF 393 was > 100 µM (inactive) each time. The GI50 with SF-539, with SK-MEL-28, with SK-OV-3, in the assay on SN12C, in the assay on SNB-75 and in the assay with SW-620 was > 100 µM (inactive) in each case. The GI50 in the assay on UACC-257 and in the assay on UO-31 was > 100 µM (inactive) each time.
Regarding `Clc1cccc(N2CCN(CCN3CCc4c([nH]c5ccccc45)C3c3cccnc3)CC2)c1` (stereo not given), the GI50 was > 94.6 µM (inactive) in the assay with A549; > 100 µM (inactive) in the assay on ACHN; > 52.5 µM (inactive) in the assay on HOP-92; 8.05 µM (inactive) in the assay on KM12; > 79.4 µM (inactive) in the assay on M14; > 100 µM (inactive) in the assay with MDA-MB-435. Further, the GI50 in the assay on MOLT-4 was > 71.6 µM (inactive); in the assay with NCI-H226 it was > 37.3 µM (inactive); with OVCAR-3 it was 58.5 µM (inactive); with OVCAR-5, > 57.3 µM (inactive); in the assay on PC-3, > 86.7 µM (inactive); in the assay on RXF 393 it was > 100 µM (inactive). The GI50 was 33.5 µM (inactive) in the assay on SF-539; > 100 µM (inactive) in the assay with SK-MEL-28; > 100 µM (inactive) in the assay on SK-OV-3; 43.6 µM (inactive) in the assay with SN12C; 18.8 µM (inactive) with SNB-75; > 64.6 µM (inactive) in the assay with SW-620. The GI50 in the assay with UACC-257 was > 77.4 µM (inactive); in the assay on UO-31, > 100 µM (inactive).
Take `O=C(CC(=O)N(C(=O)c1ccccc1)c1ccc(Cl)cc1)N/N=C\c1ccccc1O`: the GI50 in the assay with A549 was 82 µM (inactive); in the assay with ACHN it was 77.3 µM (inactive); in the assay with HOP-92, 24.6 µM (inactive); in the assay on KM12, 33.5 µM (inactive); with M14, > 100 µM (inactive); in the assay with MDA-MB-435 it was > 100 µM (inactive). Also, the GI50 in the assay with MOLT-4 is 2.61 µM (inactive); with NCI-H226, 35.5 µM (inactive); with OVCAR-3, > 100 µM (inactive); in the assay on OVCAR-5, 36.6 µM (inactive); in the assay with PC-3 it was 39.3 µM (inactive); in the assay with RXF 393, 36.8 µM (inactive). Also, the GI50 in the assay with SF-539 is 36.1 µM (inactive); in the assay with SK-MEL-28, > 100 µM (inactive); in the assay on SK-OV-3, 17.2 µM (inactive); in the assay with SN12C, > 100 µM (inactive); in the assay with SNB-75, 22.9 µM (inactive); in the assay with SW-620, > 100 µM (inactive). For the same compound, the GI50 is > 100 µM (inactive) in the assay on UACC-257 and 38.7 µM (inactive) with UO-31.
On to `N[C@H](C(=O)O)[C@H]1ON=C(Cl)[C@@H]1O`, for which the GI50 in the assay with A549 is 1.56 µM (inactive); in the assay with ACHN, 10.7 µM (inactive); with HOP-92, 27.4 µM (inactive); with KM12, 0.612 µM (active); in the assay on M14, 6.03 µM (inactive); in the assay on MDA-MB-435, 3.56 µM (inactive). For the same compound, the GI50 is 1.38 µM (inactive) in the assay on MOLT-4; 45.1 µM (inactive) in the assay on NCI-H226; 18.5 µM (inactive) in the assay on OVCAR-3; 5.6 µM (inactive) in the assay with OVCAR-5; 7.03 µM (inactive) with PC-3; 58.3 µM (inactive) with RXF 393. In addition, the GI50 with SF-539 was 1.28 µM (inactive); with SK-MEL-28, 3.24 µM (inactive); with SK-OV-3 it was 14.3 µM (inactive); with SN12C, 4.63 µM (inactive); in the assay with SNB-75, 26.2 µM (inactive); in the assay with SW-620 it was 2.16 µM (inactive). The GI50 is 14.7 µM (inactive) in the assay with UACC-257 and 18.3 µM (inactive) in the assay with UO-31.
For the compound `CC(=O)c1ccc(/N=N/c2ccc3nonc3c2N)cc1`, the GI50 in the assay with A549 was > 100 µM (inactive); in the assay on ACHN, > 100 µM (inactive); with HOP-92, > 100 µM (inactive); with KM12, > 100 µM (inactive); in the assay with M14, 52.8 µM (inactive); with MDA-MB-435, > 100 µM (inactive). Besides, the GI50 in the assay on MOLT-4 was > 100 µM (inactive); with NCI-H226, > 100 µM (inactive); in the assay on OVCAR-3 it was 88.3 µM (inactive); in the assay with OVCAR-5, > 100 µM (inactive); in the assay on PC-3, > 100 µM (inactive); with RXF 393, > 100 µM (inactive). Moreover, the GI50 was > 100 µM (inactive) in the assay on SF-539; > 100 µM (inactive) in the assay with SK-MEL-28; > 100 µM (inactive) in the assay on SK-OV-3; > 100 µM (inactive) with SN12C; 94.4 µM (inactive) in the assay with SNB-75; > 100 µM (inactive) in the assay on SW-620. Further, the GI50 in the assay with UACC-257 and in the assay with UO-31 was > 100 µM (inactive) each time.
For `COc1cccc(C2c3cc4c(cc3OC(N3CCCCC3)C2C)OCO4)c1OC` (stereo not given), the GI50 with A549 was 5.14 µM (inactive); in the assay on ACHN it was 3.19 µM (inactive); in the assay with HOP-92, 5.4 µM (inactive); in the assay on KM12, 6.32 µM (inactive); in the assay with M14 it was 12.7 µM (inactive); with MDA-MB-435 it was 11.3 µM (inactive). The GI50 was 4.42 µM (inactive) in the assay with MOLT-4; 3.93 µM (inactive) in the assay with NCI-H226; 4.15 µM (inactive) in the assay with OVCAR-3; 17.7 µM (inactive) with OVCAR-5; 5.58 µM (inactive) in the assay on PC-3; 4.08 µM (inactive) with RXF 393. The GI50 with SF-539 was 12.6 µM (inactive); with SK-MEL-28, 16.3 µM (inactive); with SK-OV-3 it was 12.4 µM (inactive); with SN12C it was 5.73 µM (inactive); in the assay with SNB-75 it was 5.52 µM (inactive); in the assay with SW-620, 3.93 µM (inactive). Further, the GI50 in the assay with UACC-257 is 5.94 µM (inactive); in the assay on UO-31 it was 7.05 µM (inactive).
Regarding `Nc1ccc([As](=O)(O)O)cc1` [ARSANILIC ACID], the GI50 with A549, in the assay with ACHN, in the assay on HOP-92, in the assay on KM12, in the assay on M14 and in the assay on MDA-MB-435 was > 100 µM (inactive) throughout. In addition, the GI50 in the assay on MOLT-4, in the assay with NCI-H226, in the assay on OVCAR-3, in the assay with OVCAR-5, in the assay with PC-3 and in the assay with RXF 393 was > 100 µM (inactive) in each case. In addition, the GI50 in the assay with SF-539, in the assay with SK-MEL-28, in the assay with SK-OV-3, in the assay on SN12C, in the assay on SNB-75 and in the assay on SW-620 was > 100 µM (inactive) throughout. In addition, the GI50 in the assay on UACC-257 and in the assay on UO-31 was > 100 µM (inactive) throughout.

(Values after ChEMBL document CHEMBL1201862, “PubChem BioAssay data set” (2004).)
